Measurements reported in patent US9884842B2, “Combretastatin analogs” (The Board of Trustees of the University of Arkansas, priority 2013, dated 2018).

Key:
NCI-H522 = assay: NCI growth inhibition and cytotoxicity screen, Lung Cancer panel; type: cell-based; conditions: Homo sapiens, Table 2, cell line NCI-H522 (Lung Cancer); for CC50: read-out: LC50 (the source's name)
HL-60(TB) = assay: cells; conditions: Homo sapiens; for GI50: HL-60; for CC50: HL-60, read-out: LC50
OVCAR-3 = assay: cells; conditions: Homo sapiens; for GI50: OVCAR-3; for CC50: OVCAR-3, read-out: LC50
MDA-MB-468 = assay: cells; conditions: Homo sapiens; for GI50: MDA-MB-468; for CC50: MDA-MB-468, read-out: LC50
MOLT-4 = assay: NCI growth inhibition and cytotoxicity screen, Leukemia panel; conditions: Homo sapiens; for GI50: MOLT-4; for CC50: MOLT-4, read-out: LC50
RPMI-8226 = assay: as above; conditions: Homo sapiens; for GI50: RPMI-8226; for CC50: RPMI-8226, read-out: LC50
MDA-MB-435 = assay: NCI growth inhibition and cytotoxicity screen, Melanoma panel; conditions: Homo sapiens; for GI50: MDA-MB-435; for CC50: MDA-MB-435, read-out: LC50
SK-MEL-2 = assay: as above; conditions: Homo sapiens; for GI50: SK-MEL-2; for CC50: SK-MEL-2, read-out: LC50
SK-MEL-28 = assay: as above; conditions: Homo sapiens; for GI50: SK-MEL-28; for CC50: SK-MEL-28, read-out: LC50
SK-MEL-5 = assay: as above; conditions: Homo sapiens; for GI50: SK-MEL-5; for CC50: SK-MEL-5, read-out: LC50
UACC-62 = assay: as above; conditions: Homo sapiens; for GI50: UACC-62; for CC50: UACC-62, read-out: LC50
SF-539 = assay: NCI growth inhibition and cytotoxicity screen, CNS Cancer panel; conditions: Homo sapiens; for GI50: SF-539; for CC50: SF-539, read-out: LC50
SNB-75 = assay: as above; conditions: Homo sapiens; for GI50: SNB-75; for CC50: SNB-75, read-out: LC50
A549/ATCC = assay: NCI growth inhibition and cytotoxicity screen, Lung Cancer panel; conditions: Homo sapiens; for GI50: A549; for CC50: A549, read-out: LC50
HOP-62 = assay: as above; conditions: Homo sapiens; for GI50: HOP-62; for CC50: HOP-62, read-out: LC50
HOP-92 = assay: as above; conditions: Homo sapiens; for GI50: HOP-92; for CC50: HOP-92, read-out: LC50
COLO 205 = assay: NCI growth inhibition and cytotoxicity screen, Colon Cancer panel; conditions: Homo sapiens; for CC50: COLO 205, read-out: LC50
HCC-2998 = assay: as above; conditions: Homo sapiens; for GI50: HCC 2998; for CC50: HCC 2998, read-out: LC50
A498 = assay: NCI growth inhibition and cytotoxicity screen, Renal Cancer panel; conditions: Homo sapiens; for GI50: A498; for CC50: A498, read-out: LC50
ACHN = assay: as above; conditions: Homo sapiens; for CC50: read-out: LC50
RXF 393 = assay: as above; conditions: Homo sapiens; for GI50: RXF 393; for CC50: RXF 393, read-out: LC50
TK-10 = assay: as above; conditions: Homo sapiens; for GI50: TK-10; for CC50: TK-10, read-out: LC50
MCF7 = assay: NCI growth inhibition and cytotoxicity screen, Breast Cancer panel; conditions: Homo sapiens; for GI50: MCF7; for CC50: MCF7, read-out: LC50
MDA-MB-231/ATCC = assay: as above; conditions: Homo sapiens; for GI50: MDA-MB-231; for CC50: MDA-MB-231, read-out: LC50
HS 578T = assay: as above; conditions: Homo sapiens; for CC50: read-out: LC50
T-47D = assay: as above; conditions: Homo sapiens, T47D; for CC50: read-out: LC50
OVCAR-4 = assay: NCI growth inhibition and cytotoxicity screen, Ovarian Cancer panel; conditions: Homo sapiens; for GI50: OVCAR-4; for CC50: OVCAR-4, read-out: LC50
OVCAR-5 = assay: as above; conditions: Homo sapiens; for GI50: OVCAR-5; for CC50: OVCAR-5, read-out: LC50
OVCAR-8 = assay: as above; conditions: Homo sapiens; for GI50: OVCAR-8; for CC50: OVCAR-8, read-out: LC50
PC-3 = assay: NCI growth inhibition and cytotoxicity screen, Prostate Cancer panel; conditions: Homo sapiens; for GI50: PC-3; for CC50: PC-3, read-out: LC50
DU-145 = assay: as above; conditions: Homo sapiens; for GI50: DU-145; for CC50: DU-145, read-out: LC50

COc1cc(/C(C#N)=C/c2ccc3ccccc3n2)cc(OC)c1OC [PNR-4-90, (Z)-3-(quinolin-2-yl)-2-(3,4,5-trimethoxyphenyl)acrylonitrile]
GI50 (NCI-H522): 37.2 nM | CC50 (NCI-H522): > 100000 nM | GI50 (HL-60(TB)): 223 nM | CC50 (HL-60(TB)): > 100000 nM | GI50 (OVCAR-3): 163 nM | CC50 (OVCAR-3): 54900 nM | GI50 (MDA-MB-468): 243 nM | CC50 (MDA-MB-468): > 100000 nM | GI50 (MOLT-4): 488 nM | CC50 (MOLT-4): > 100000 nM | GI50 (RPMI-8226): 297 nM | CC50 (RPMI-8226): > 100000 nM | GI50 (MDA-MB-435): 33 nM | CC50 (MDA-MB-435): 60000 nM | GI50 (SK-MEL-2): 483 nM | CC50 (SK-MEL-2): > 100000 nM | GI50 (SK-MEL-28): 518 nM | CC50 (SK-MEL-28): > 100000 nM | GI50 (SK-MEL-5): 243 nM | CC50 (SK-MEL-5): > 100000 nM | GI50 (UACC-62): 92 nM | CC50 (UACC-62): > 100000 nM | GI50 (SF-539): 197 nM | CC50 (SF-539): 14900 nM | GI50 (SNB-75): 182 nM | CC50 (SNB-75): 98800 nM | GI50 (A549/ATCC): 375 nM | CC50 (A549/ATCC): > 100000 nM | GI50 (HOP-62): 567 nM | CC50 (HOP-62): > 100000 nM | GI50 (HOP-92): 736 nM | CC50 (HOP-92): > 100000 nM | GI50 (COLO 205; COLO 205): 198 nM | CC50 (COLO 205): 32700 nM | GI50 (HCC-2998): 610 nM | CC50 (HCC-2998): > 100000 nM | GI50 (A498): 295 nM | CC50 (A498): > 100000 nM | GI50 (ACHN): 1040 nM | CC50 (ACHN): > 100000 nM | GI50 (RXF 393): 271 nM | CC50 (RXF 393): > 100000 nM | GI50 (TK-10): 4690 nM | CC50 (TK-10): > 100000 nM | GI50 (MCF7): 275 nM | CC50 (MCF7): > 100000 nM | GI50 (MDA-MB-231/ATCC): 943 nM | CC50 (MDA-MB-231/ATCC): > 100000 nM | GI50 (HS 578T): 689 nM | CC50 (HS 578T): > 100000 nM | GI50 (T-47D): 4760 nM | CC50 (T-47D): > 100000 nM | GI50 (OVCAR-4): 1430 nM | CC50 (OVCAR-4): > 100000 nM | GI50 (OVCAR-5): 580 nM | CC50 (OVCAR-5): > 100000 nM | GI50 (OVCAR-8): 446 nM | CC50 (OVCAR-8): > 100000 nM | GI50 (PC-3): 348 nM | CC50 (PC-3): > 100000 nM | GI50 (DU-145): 446 nM | CC50 (DU-145): > 100000 nM

COc1cc(/C(C#N)=C/c2cnc3ccccc3c2)cc(OC)c1OC [PNR-5-10, (Z)-3-(quinolin-3-yl)-2-(3,4,5-trimethoxyphenyl)acrylonitrile]
GI50 (NCI-H522): 299 nM | CC50 (NCI-H522): > 100000 nM | GI50 (HL-60(TB)): 329000 nM | CC50 (HL-60(TB)): > 100000 nM | GI50 (OVCAR-3): 263 nM | CC50 (OVCAR-3): > 100000 nM | GI50 (MDA-MB-468): 870 nM | CC50 (MDA-MB-468): > 100000 nM | GI50 (MOLT-4): 3200 nM | CC50 (MOLT-4): > 100000 nM | GI50 (RPMI-8226): 2060 nM | CC50 (RPMI-8226): > 100000 nM | GI50 (MDA-MB-435): 227 nM | CC50 (MDA-MB-435): > 100000 nM | GI50 (SK-MEL-2): 1050 nM | CC50 (SK-MEL-2): > 100000 nM | GI50 (SK-MEL-28): 3270 nM | CC50 (SK-MEL-28): > 100000 nM | GI50 (SK-MEL-5): 410 nM | CC50 (SK-MEL-5): > 100000 nM | GI50 (UACC-62): 478 nM | CC50 (UACC-62): > 100000 nM | GI50 (SF-539): 361 nM | CC50 (SF-539): > 100000 nM | GI50 (SNB-75): 1490 nM | CC50 (SNB-75): > 100000 nM | GI50 (A549/ATCC): 680 nM | CC50 (A549/ATCC): > 100000 nM | GI50 (HOP-62): 10300 nM | CC50 (HOP-62): > 100000 nM | GI50 (HOP-92): 403 nM | CC50 (HOP-92): > 100000 nM | CC50 (COLO 205): 9440 nM | GI50 (HCC-2998): 2010 nM | CC50 (HCC-2998): > 100000 nM | GI50 (A498): 678 nM | CC50 (A498): > 100000 nM | GI50 (ACHN): 911 nM | CC50 (ACHN): > 100000 nM | GI50 (RXF 393): 579 nM | CC50 (RXF 393): > 100000 nM | GI50 (TK-10): 2550 nM | CC50 (TK-10): > 100000 nM | GI50 (MCF7): 429 nM | CC50 (MCF7): > 100000 nM | GI50 (MDA-MB-231/ATCC): 2830 nM | CC50 (MDA-MB-231/ATCC): > 100000 nM | GI50 (HS 578T): 1310 nM | CC50 (HS 578T): > 100000 nM | GI50 (T-47D): 9540 nM | CC50 (T-47D): > 100000 nM | GI50 (OVCAR-4): 13800 nM | CC50 (OVCAR-4): > 100000 nM | GI50 (OVCAR-5): 3940 nM | CC50 (OVCAR-5): > 100000 nM | GI50 (OVCAR-8): 3410 nM | CC50 (OVCAR-8): > 100000 nM | GI50 (PC-3): 1080 nM | CC50 (PC-3): > 100000 nM | GI50 (DU-145): 1510 nM | CC50 (DU-145): > 100000 nM
